Measured values published in ChEMBL document CHEMBL2440076, “New triarylpyrazoles as broad-spectrum anticancer agents: design, synthesis, and biological evaluation” (Eur J Med Chem, 2013).

How the values were obtained:
Type in all cases: functional
DU-145 = experiment: Growth inhibition of human DU145 cells assessed as cell growth at 3X10'-7 M after 48 hrs by sulforhodamine B assay; conditions: DU-145, 48 h, read-out: Activity
COLO 205 = experiment: Growth inhibition of human COLO205 cells assessed as cell growth at 3X10'-9 M after 48 hrs by sulforhodamine B assay; conditions: COLO 205, 48 h, read-out: Activity
SN12C [1] = experiment: Growth inhibition of human SN12C cells assessed as cell growth at 3X10'-7 M after 48 hrs by sulforhodamine B assay; conditions: read-out: Activity
MDA-MB-231 = experiment: Growth inhibition of human MDA-MB-231 cells assessed as cell growth at 3X10'-9 M after 48 hrs by sulforhodamine B assay; conditions: MDA-MB-231, 48 h, read-out: Activity
UO-31 = experiment: Growth inhibition of human UO31 cells assessed as cell growth at 3X10'-5 M after 48 hrs by sulforhodamine B assay; conditions: UO-31, 48 h, read-out: Activity
LOX IMVI = experiment: Growth inhibition of human LOXIMVI cells assessed as cell growth at 3X10'-5 M after 48 hrs by sulforhodamine B assay; conditions: read-out: Activity
SW-620 = experiment: Growth inhibition of human SW620 cells assessed as cell growth at 3X10'-9 M after 48 hrs by sulforhodamine B assay; conditions: SW-620, 48 h, read-out: Activity
MOLT-4 [2] = experiment: Growth inhibition of human MOLT4 cells assessed as cell growth at 3X10'-8 M after 48 hrs by sulforhodamine B assay; conditions: MOLT-4, 48 h, read-out: Activity
Malme-3M = experiment: Growth inhibition of human MALME-3M cells assessed as cell growth at 3X10'-6 M after 48 hrs by sulforhodamine B assay; conditions: read-out: Activity
RPMI-8226 [3] = experiment: Growth inhibition of human RPMI8226 cells assessed as cell growth at 3X10'-5 M after 48 hrs by sulforhodamine B assay; conditions: RPMI-8226, 48 h, read-out: Activity
OVCAR-3 [4] = experiment: Growth inhibition of human OVCAR3 cells assessed as cell growth at 3X10'-7 M after 48 hrs by sulforhodamine B assay; conditions: OVCAR-3, 48 h, read-out: Activity
RXF 393 = experiment: Growth inhibition of human RXF393 cells assessed as cell growth at 3X10'-5 M after 48 hrs by sulforhodamine B assay; conditions: RXF 393, 48 h, read-out: Activity
[5] = Growth inhibition of human NCI-ADR-RES cells assessed as cell growth at 3X10'-8 M after 48 hrs by sulforhodamine B assay; conditions: read-out: Activity
SNB-19 = experiment: Growth inhibition of human SNB19 cells assessed as cell growth at 3X10'-8 M after 48 hrs by sulforhodamine B assay; conditions: SNB-19, 48 h, read-out: Activity
MOLT-4 [6] = experiment: Growth inhibition of human MOLT4 cells assessed as cell growth at 3X10'-6 M after 48 hrs by sulforhodamine B assay; conditions: MOLT-4, 48 h, read-out: Activity
OVCAR-3 [7] = experiment: Growth inhibition of human OVCAR3 cells assessed as cell growth at 3X10'-5 M after 48 hrs by sulforhodamine B assay; conditions: OVCAR-3, 48 h, read-out: Activity
NCI-H226 = experiment: Growth inhibition of human NCI-H226 cells assessed as cell growth at 3X10'-5 M after 48 hrs by sulforhodamine B assay; conditions: NCI-H226, 48 h, read-out: Activity
IGROV-1 = experiment: Growth inhibition of human IGROV1 cells assessed as cell growth at 3X10'-5 M after 48 hrs by sulforhodamine B assay; conditions: IGROV-1, 48 h, read-out: Activity
UACC-257 = experiment: Growth inhibition of human UACC257 cells assessed as cell growth at 3X10'-5 M after 48 hrs by sulforhodamine B assay; conditions: UACC-257, 48 h, read-out: Activity
NCI-H322M = experiment: Growth inhibition of human NCI-H322M cells assessed as cell growth at 3X10'-6 M after 48 hrs by sulforhodamine B assay; conditions: read-out: Activity
SK-MEL-5 [8] = experiment: Growth inhibition of human SK-MEL-5 cells assessed as cell growth at 3X10'-6 M after 48 hrs by sulforhodamine B assay; conditions: SK-MEL-5, 48 h, read-out: Activity
KM12 = experiment: Growth inhibition of human KM12 cells assessed as cell growth at 3X10'-6 M after 48 hrs by sulforhodamine B assay; conditions: KM12, 48 h, read-out: Activity
SK-MEL-5 [9] = experiment: Growth inhibition of human SK-MEL-5 cells assessed as cell growth at 3X10'-7 M after 48 hrs by sulforhodamine B assay; conditions: SK-MEL-5, 48 h, read-out: Activity
HCT-15 = experiment: Growth inhibition of human HCT15 cells assessed as cell growth at 3X10'-7 M after 48 hrs by sulforhodamine B assay; conditions: HCT-15, 48 h, read-out: Activity
MDA-MB-435 = experiment: Growth inhibition of human MDA-MB-435 cells assessed as cell growth at 3X10'-9 M after 48 hrs by sulforhodamine B assay; conditions: MDA-MB-435, 48 h, read-out: Activity
786-0 = experiment: Growth inhibition of human 786-0 cells assessed as cell growth at 3X10'-6 M after 48 hrs by sulforhodamine B assay; conditions: 786-0, 48 h, read-out: Activity
HOP-92 [10] = experiment: Growth inhibition of human HOP92 cells assessed as cell growth at 3X10'-8 M after 48 hrs by sulforhodamine B assay; conditions: HOP-92, 48 h, read-out: Activity
SK-MEL-2 = experiment: Growth inhibition of human SK-MEL-2 cells assessed as cell growth at 3X10'-5 M after 48 hrs by sulforhodamine B assay; conditions: SK-MEL-2, 48 h, read-out: Activity
RPMI-8226 [11] = experiment: Growth inhibition of human RPMI8226 cells assessed as cell growth at 3X10'-8 M after 48 hrs by sulforhodamine B assay; conditions: RPMI-8226, 48 h, read-out: Activity
OVCAR-5 = experiment: Growth inhibition of human OVCAR5 cells assessed as cell growth at 3X10'-6 M after 48 hrs by sulforhodamine B assay; conditions: OVCAR-5, 48 h, read-out: Activity
SN12C [12] = experiment: Growth inhibition of human SN12C cells assessed as cell growth at 3X10'-8 M after 48 hrs by sulforhodamine B assay; conditions: read-out: Activity
SR = experiment: Growth inhibition of human SR cells assessed as cell growth at 3X10'-6 M after 48 hrs by sulforhodamine B assay; conditions: read-out: Activity
UACC-62 = experiment: Growth inhibition of human UACC62 cells assessed as cell growth at 3X10'-8 M after 48 hrs by sulforhodamine B assay; conditions: UACC-62, 48 h, read-out: Activity
HOP-92 [13] = experiment: Growth inhibition of human HOP92 cells assessed as cell growth at 3X10'-7 M after 48 hrs by sulforhodamine B assay; conditions: HOP-92, 48 h, read-out: Activity
PC-3 = experiment: Growth inhibition of human PC3 cells assessed as cell growth at 3X10'-8 M after 48 hrs by sulforhodamine B assay; conditions: PC-3, 48 h, read-out: Activity

Row | SMILES | growth at 0.3 µM (DU-145) [%] | growth at 0.003 µM (COLO 205) [%] | growth at 0.3 µM (SN12C [1]) [%] | growth at 0.003 µM (MDA-MB-231) [%] | growth at 30 µM (UO-31) [%] | growth at 30 µM (LOX IMVI) [%] | growth at 0.003 µM (SW-620) [%] | growth at 0.03 µM (MOLT-4 [2]) [%] | growth at 3 µM (Malme-3M) [%] | growth at 30 µM (RPMI-8226 [3]) [%] | growth at 0.3 µM (OVCAR-3 [4]) [%] | growth at 30 µM (RXF 393) [%] | growth at 0.03 µM [5] [%] | growth at 0.03 µM (SNB-19) [%] | growth at 3 µM (MOLT-4 [6]) [%] | growth at 30 µM (OVCAR-3 [7]) [%] | growth at 30 µM (NCI-H226) [%] | growth at 30 µM (IGROV-1) [%] | growth at 30 µM (UACC-257) [%] | growth at 3 µM (NCI-H322M) [%] | also measured
1 | O=C(Nc1cccc(-n2cc(-c3ccncc3)c(-c3ccc(Cl)c(O)c3)n2)c1)Nc1ccc(Cl)c(C(F)(F)F)c1 | 97 | 105 | 91 | 92 | -28 | -91 | 100 | 116 | -32 | -15 | 101 | -49 | 102 | 94 | -4 | -16 | 5 | -47 | -90 | 9 | growth at 3 µM (SK-MEL-5 [8]): -81%; growth at 3 µM (KM12): 2%; growth at 0.3 µM (SK-MEL-5 [9]): 89%; growth at 0.3 µM (HCT-15): 84%; growth at 0.003 µM (MDA-MB-435): 97%; growth at 3 µM (786-0): 19%; growth at 0.03 µM (HOP-92 [10]): 76%; growth at 30 µM (SK-MEL-2): -76%; growth at 0.03 µM (RPMI-8226 [11]): 89%; growth at 3 µM (OVCAR-5): 33%; growth at 0.03 µM (SN12C [12]): 94%; growth at 3 µM (SR): -10%; growth at 0.03 µM (UACC-62): 95%; growth at 0.3 µM (HOP-92 [13]): 55%; growth at 0.03 µM (PC-3): 89%
2 | COc1cc(-c2nn(-c3cccc(NC(=O)c4ccc(Cl)c(C(F)(F)F)c4)c3)cc2-c2ccncc2)ccc1Cl | 98 | 101 | 93 | 99 | 11 | 16 | 98 | 97 | 20 | 5 | 98 | -11 | 94 | 96 | 57 | -12 | 23 | 8 | 32 | 73 | growth at 3 µM (SK-MEL-5 [8]): 24%; growth at 3 µM (KM12): 39%; growth at 0.3 µM (SK-MEL-5 [9]): 93%; growth at 0.3 µM (HCT-15): 94%; growth at 0.003 µM (MDA-MB-435): 95%; growth at 3 µM (786-0): 71%; growth at 0.03 µM (HOP-92 [10]): 85%; growth at 30 µM (SK-MEL-2): -10%; growth at 0.03 µM (RPMI-8226 [11]): 100%; growth at 3 µM (OVCAR-5): 88%; growth at 0.03 µM (SN12C [12]): 99%; growth at 3 µM (SR): 5%; growth at 0.03 µM (UACC-62): 99%; growth at 0.3 µM (HOP-92 [13]): 73%; growth at 0.03 µM (PC-3): 92%
